Values joined by “and” are separate entries in the source; they are usually repeats but may differ in a detail not shown here. Equal entries are not always repeated. Structures can show the parent of a compound that is named as a salt. Where two headings read alike, the source gives them in different places. Blank lines part the entries; values can stand above or below the compound they belong to.
What was measured:
[1] = Hydrolysis to metronidazole in human plasma (in vitro); type: in vitro ADME
[2] = Hydrolysis to metronidazole in 0.05M phosphate buffer pH 7.4; type: physicochemical; details: pH 7.4, 37° C, read-out: t1/2 in buffer
[3] = Intravenous cross-over study in two beagle dogs, plasma concentrations of ester, metronidazole and metabolites; type: in vivo
Description: (§1) To test the assumption that the N,N-dimethylglycine ester would be a suitable water-soluble prodrug of metronidazole for parenteral administration, metronidazole and its N,N-dimethylglycine ester were given intravenously to two beagle dogs in a cross-over study.

[4] = Solubility in water / aqueous solution; type: physicochemical
[5] = pH of aqueous solutions of the hydrochloride; type: physicochemical; details: 1-20% w/v aqueous solutions
[6] = Initial rate of formation of metronidazole and time to begin precipitation, calculated at 23° C (Table 2); type: physicochemical
Procedure: Since t10% for the ester is 73 h at 23° C., the results given in Table 2 indicate that the stability of aqueous solutions of the prodrug ester will only be limited by the potential precipitation of metronidazole formed upon hydrolysis in those cases where the concentration of the ester in aqueous solutions exceeds about 20%.

[7] = Local tolerance after intravenous injection in dogs; type: in vivo, beagle dogs
Description: as §1

[8] = cited from earlier work
[9] = after parenteral administration; cited from earlier work
[10] = compound itself (uncleaved ester); cited from earlier work
[11] = Effect of temperature on rate of hydrolysis in acetate buffer pH 4.4 (Arrhenius plot); type: physicochemical
Procedure: The effect of temperature on the rate of hydrolysis of metronidazole N,N-dimethylglycinate was studied in 0.05M acetate buffer of pH 4.4 over the temperature range 23°-50° C.
The results obtained are illustrated in FIG. 1 of the drawings. […] Based on the slope of said plot an activation energy of 17.7 kcal mole^-1 was calculated. Based on said Arrhenius type plot the stability of aqueous solutions of the ester may be predicted at various temperatures.

[12] = Hydrolysis in 80% dog plasma in vitro; type: in vitro ADME; details: 80% plasma, 37° C
Description: As noted below the rapid and quantitative formation of metronidazole seen after administration of the ester indicate, however, that the rate of ester disappearance is solely or predominantly due to the hydrolytic conversion.

[13] = published data; cited from earlier work
[14] = compared with metronidazole at the same dosage level; cited from earlier work
[15] = 80% plasma, 80% human plasma, pH 7.4, 37° C, read-out: t1/2 in human plasma

Structure (SMILES): Cc1ncc([N+](=O)[O-])n1CC(=O)O [2-Methyl-5-nitroimidazole-1-aceticacid]
plasma concentration of metabolite (in words) ([3]; dogs, i.v. ester hydrochloride (30 mg/kg metronidazole equivalents) or metronidazole (10 mg/kg)): could not be detected in measurable concentrations

Structure (SMILES): Cc1ncc([N+](=O)[O-])n1CCOC(=O)CN(C)C [Metronidazole N,N-dimethylglycinate hydrochloride]
solubility ([4]; water, 20° C, read-out: solubility in water): > 500000 µg/mL and > 1.7e+06 µM | pH of the 1-20% w/v solutions [5]: 4.4-4.6 | (d[M]/dt)i, apparent zero-order initial rate of formation of metronidazole ([6]; 50 mg ml^-1 hydrochloride): 0.042 mg/mL/h | tpt, time for metronidazole to begin precipitation ([6]; 50 mg ml^-1 hydrochloride): 238 h | (d[M]/dt)i, apparent zero-order initial rate of formation of metronidazole ([6]; 100 mg ml^-1 hydrochloride): 0.084 mg/mL/h | tpt, time for metronidazole to begin precipitation ([6]; 100 mg ml^-1 hydrochloride): 119 h | (d[M]/dt)i, apparent zero-order initial rate of formation of metronidazole ([6]; 200 mg ml^-1 hydrochloride): 0.168 mg/mL/h | tpt, time for metronidazole to begin precipitation ([6]; 200 mg ml^-1 hydrochloride): 60 h | (d[M]/dt)i, apparent zero-order initial rate of formation of metronidazole ([6]; 300 mg ml^-1 hydrochloride): 0.252 mg/mL/h | tpt, time for metronidazole to begin precipitation ([6]; 300 mg ml^-1 hydrochloride): 40 h | conversion to metronidazole (in words) ([3]; i.v., dogs): rapidly and completely converted to metronidazole | signs of pain or local toxicity [7]: No signs of pain or local toxicity

Structure (SMILES): Cc1ncc([N+](=O)[O-])n1CCO [metronidazole]
solubility ([4]; aqueous solution, pH>3, 25° C, read-out: solubility in aqueous solutions): 10000 µg/mL and 58000 µM | solubility in an aqueous solution ([8]; background statement): about 100 mg/10 ml | solubility augmented by solubilizers ([8]; with gentisic acid (1:4) or with co-solvents (prior art)): 500-650 mg/10 ml

Structure (SMILES): Cc1ncc([N+](=O)[O-])n1CCOC(=O)CCC(=O)O
solubility in water (in words) ([8]; prior art esters): has the required solubility in water | cleavage of the ester in blood serum (in words) [9]: very slow | microbiological activity (in words) [10]: microbiologically inactive

Structure (SMILES): Cc1ncc([N+](=O)[O-])n1CCOC(=O)CN(C)C [metronidazole N,N-dimethylglycinate]
half-life [1, 15]: 0.2 h | half-life ([1]; human plasma or blood, in vitro, read-out: half-life of hydrolysis in human plasma or blood): 0.15 to 0.2 h | half-life [2]: 4.17 h | activation energy of hydrolysis ([11]; 0.05M acetate buffer pH 4.4, 23°-50° C, Arrhenius plot): 17.7 kcal/mol | t10% (time in which 10% of the ester is degraded) ([11]; pH 4.4, 4° C): 576 h | t10% (time in which 10% of the ester is degraded) ([11]; pH 4.4, 15° C): 166 h | t10% (time in which 10% of the ester is degraded) ([11]; pH 4.4, 23° C): 73 h | half-life of disappearance of the ester in dogs ([3]; i.v. hydrochloride, 30 mg/kg metronidazole equivalents, one value per dog, 30 mg/kg): approximately 3 min and ~7 min | hydrolysis in the dogs (in words) ([3]; i.v., 30 mg/kg metronidazole equivalents): hydrolyzed rapidly | pattern of metabolite formation (in words) ([3]; i.v., dogs, compared with injection of metronidazole): quite similar to that observed after injection of metronidazole | half-life [12]: 0.417 h

Structure (SMILES): CCCNCC(=O)OCCn1c([N+](=O)[O-])cnc1C [N--Propylglycinate]
half-life [1, 15]: 0.133 h | half-life [2]: 1.5 h

Structure (SMILES): Cc1ncc([N+](=O)[O-])n1CCOP(=O)(O)O [phosphate ester]
rate of conversion to metronidazole in vivo (in words) [13]: rather slow rate of conversion to metronidazole in vivo | bioavailability of metronidazole to rats (in words) [14]: significantly lower than that obtained with metronidazole at the same dosage level

Structure (SMILES): Cc1ncc([N+](=O)[O-])n1CCOC(=O)CN1CCN(C)CC1 [4-Methyl-1-piperazinoacetate]
half-life [1, 15]: 8.72 h | half-life [2]: 28.7 h

Next, values leading:

half-life [1, 15]: 0.767 h | half-life [2]: 0.867 h
Structure (SMILES): Cc1ncc([N+](=O)[O-])n1CCOC(=O)CCN(C)C

half-life [1, 15]: 0.683 h | half-life [2]: 1.92 h
Structure (SMILES): Cc1ncc([N+](=O)[O-])n1CCOC(=O)CN [Glycinate]

half-life [1, 15]: 3.45 h | half-life [2]: 5.25 h
Structure (SMILES): Cc1ncc([N+](=O)[O-])n1CCOC(=O)CCN

half-life [1, 15]: 5.57 h | half-life [2]: 9.67 h
Structure (SMILES): Cc1ncc([N+](=O)[O-])n1CCOC(=O)CCCN(C)C

— patent US4482722A, “Ester of metronidazole with N,N-dimethylglycine and acid addition salt thereof” (A/S Dumex (Dumex Ltd.), priority 1982, dated 1984)
